Key:
[1] = tested on: neuraminidase (from Arthrobacter ureafaciens); assay: dynamic (kinetic) parameters of the probes as neuraminidase substrates; format: biochemical; details: for Km / Vmax / kcat: 50 mM NaOAc, 2 mM CaCl2, 100 μg/mL BSA buffer (pH 6.5), 60 minutes; for kcat/Km relative to that of 4-MUNANA: fold larger than 4-MUNANA
Method: The probe was dissolved in 200 μL (total volume) of 50 mM NaOAc, 2 mM CaCl2, 100 μg/mL BSA buffer (pH 6.5) at various concentrations. A neuraminidase (from Arthrobacter ureafaciens, […]) was added, and the increase in fluorescence for 60 minutes was evaluated. Concerning the dynamic parameter Vmax and Km, the corrected data were calculated using the following formula.
V0 is the steady state speed of the probe substrate rotation by the neuraminidase, Vmax is the maximum speed (mM/min), X is the probe concentration in the reaction mixture (mM), and Km is the Michaelis constant (mM) at which the reaction speed is half of Vmax. Formula 1 was fitted to the data using KaleidaGraph 4.5.2 software (Synergy Software).
The dynamic parameters of HMRef-Neu5Ac and HMRef-S-Neu5Ac were determined in accordance with the method previously described by Govorkova et al., and compared to that of a commercial sialidase substrate, 4-MUNANA.

[2] = photochemical properties (absorption, emission, quantum yield, pKa, pKcycl); format: physicochemical; details: for pKcycl: spiro ring formation
Method: UV-vis spectra were obtained with a spectrophotometer, Shimadzu UV-2450.
Fluorescence spectra were obtained with Hitachi F-7000. The absolute fluorescence quantum efficiency was measured using an absolute PL quantum yield measuring apparatus, Quantuarus-QY (Hamamatsu Photonics K. K.). The probe was dissolved in dimethyl sulfoxide (DMSO, grade for fluorometry, DOJINDO LABORATORIES) to obtain a stock solution.
(§1) The optical property of the probe was acquired in a 0.2 M sodium phosphate buffer, a 100 mM NaOAc, 2 mM CaCl2, pH 6.5 buffer, or a 50 mM NaOAc, 2 mM CaCl2, 100 μg/mL BSA, pH 7.4 buffer. For an in vitro enzymatic reaction, the probe DMSO stock solution was diluted with a 100 mM NaOAc, 2 mM CaCl2, pH 7.4 buffer so that the final concentration was 1 μM. First, the fluorescence of the solution before adding a sialidase was measured every second (excitation wavelength: 490 nm, emission wavelength: 520 nm). Then, a neuraminidase from Arthrobacter ureafaciens (0.01 U) was used for this assay.

[3] = tested on: neuraminidase from Arthrobacter ureafaciens; assay: in vitro enzymatic reaction with sialidase, change in fluorescence intensity over time; format: biochemical; details: for increase in the fluorescence in reaction with the sialidase: 1 μM probe, 0.01 U enzyme, 100 mM NaOAc 2 mM CaCl2 buffer pH 7.4, 37° C.; for change in the fluorescence in the absence of enzyme: identical reaction without enzyme, pH 7.4, 37° C.
Method: as §1
The fluorescence intensity of HMRef-Neu5Ac obtained in Synthesis Example 1 was changed through an enzymatic reaction with a neuraminidase (Arthrobacter ureafaciens), and the change in the fluorescence intensity of HMRef-Neu5Ac over time was examined. HMRef-Neu5Ac was dissolved in a 100 mM NaOAc 2 mM CaCl2 buffer (pH 7.4) to prepare a 1 μM solution, and 0.01 U of the enzyme was added 60 seconds after the start of measurement. At the time of measurement, the temperature was 37° C., and the concentration of an enzyme inhibitor (DANA) was 100 μM.
In the same manner as in the evaluation of HMRef-Neu5Ac, the reaction with a sialidase and the absorption spectrum at each pH were acquired for HMRef-S-Neu5Ac (FIGS. 3a and 3b).

[4] = stability of the probe at various pH values (fluorescence intensity and absorption spectra over time); format: physicochemical; details: for stability: change in fluorescence intensity over time at various pH values: 0.2 M sodium phosphate buffer, 2 hours, ex/em 485 nm/535 nm; for change of absorption spectra 1.5 hours after dissolution: 0.2 M sodium phosphate buffers of various pH, immediately after vs 1.5 hours after dissolution
Method: HMRef-Neu5Ac was dissolved in 0.2 M sodium phosphate buffers having various pH values, and the absorption spectra were measured immediately after and 1.5 hours after the dissolution.
The stability of HMRef-Neu5Ac and that of HMRef-S-Neu5Ac were directly compared by recording the changes in fluorescence intensity over time at a pH within a range. The initial fluorescence intensity values of both the probes depend on the pH value according to the pKcycl values of the probes. That is, the lower the pH is, the larger the initial fluorescence intensity value is.
The measurement was performed in 0.2 M sodium phosphate buffer at 37° C. and measurements were taken every 5 minutes. In each measurement, excitation/emission wavelengths of 485 nm/535 nm were used.

[5] = pH 2, 0.2M sodium phosphate buffer
[6] = pH 7.4, 0.2M sodium phosphate buffer

pKa ([2]; 0.2 M sodium phosphate buffer) | Absorption max. [2, 6] [nm] | Emission max. [2, 6] [nm] | SMILES | Km [1] [µM] | Vmax [1] [nM/s] | kcat [1] [s⁻¹] | kcat/Km relative to that of 4-MUNANA [1] [fold] | Absorption max. [2, 5] [nm] | Emission max. [2, 5] [nm] | fluorescence quantum yield (absolute fluorescence quantum efficiency) [2, 5] | fluorescence quantum yield (absolute fluorescence quantum efficiency) [2, 6] | pKcycl [2] | increase in the fluorescence in reaction with the sialidase [3] | change in the fluorescence in the absence of enzyme [3] | stability: change in fluorescence intensity over time at various pH values ([4]; 37° C.) | change of absorption spectra 1.5 hours after dissolution [4] | time to complete hydrolysis ([4]; pH 2 and pH 4, 0.2 M sodium phosphate buffer, 37° C.)
– | – | – | CC(=O)N[C@H]1[C@H]([C@H](O)[C@H](O)CO)O[C@@](Oc2ccc3c(c2)Oc2cc(NCC(F)(F)F)ccc2C32OCc3ccccc32)(C(=O)O)C[C@@H]1O (some centres unmarked) [HMRef-Neu5Ac] | 19 | 13.5 | 20.6 | ~16 | 484 | 522 | 0.650 | 0.323 | 4.8 | up to 40 fold | 3 fold | clear instability at all the pH values | greatly changed in shape | about 40 minutes
– | – | – | CC(=O)N[C@@H]1[C@@H](O)C[C@](Oc2ccc3c(C)cc(=O)oc3c2)(C(=O)O)O[C@H]1C(O)[C@H](O)CO (stereo partly drawn) [4-MUNANA, 2′-(4-methylumbelliferyl)-α-D-N-acetylneuraminic acid, reference compound] | 37 | 1.73 | 2.6 | – | – | – | – | – | – | – | – | – | – | –
4.4 | 498 | 518 | O=c1ccc2c(-c3ccccc3CO)c3ccc(NCC(F)(F)F)cc3oc-2c1 [HMRef, reference compound] | – | – | – | – | 479 | 515 | 0.716 | 0.777 | 10.2 | – | – | – | – | –
– | – | – | CC(=O)N[C@H]1[C@H]([C@H](O)[C@H](O)CO)O[C@@](Oc2ccc(COc3ccc4c(c3)Oc3cc(NCC(F)(F)F)ccc3C43OCc4ccccc43)cc2)(C(=O)O)C[C@@H]1O (some centres unmarked) [HMRef-S-Neu5Ac] | 11 | 7.03 | 10.7 | ~13 | 484 | 522 | 0.537 | 0.271 | 5.3 | 130 fold | remained at a constant low level | changed little over the time | changed little | –

Reference: patent US20220186286A1, “FLUORESCENT PROBE FOR DETECTING ACTIVATION OF SIALIDASE” (The University of Tokyo, priority 2019, published 2022)
